Reference: patent US10028992B2, “Methods of treating muscular dystrophy” (BOARD OF REGENTS OF THE NEVADA SYSTEM OF HIGHER EDUCATION …, priority 2012, dated 2018)
Like-named read-outs stand apart in the source and are kept apart here.

Tested on: α7 integrin promoter
Experiment: muscle cell-based assay: α7βgal+/− myoblasts/myotubes, LacZ reporter, β-galactosidase cleavage of FDG
Parameters: species or system mouse
Conditions: for EC50: Mus musculus, read-out: Fit LogAC50 (converted)
Description: An α7 integrin null mouse was produced in which exon 1 of the gene encoding the α7 integrin was replaced by the LacZ reporter. In these mice, all the transcriptional regulatory elements of the α7 integrin promoter were retained, allowing β-galactosidase to report expression of 7 integrin. A primary myoblast cell line (designated α7βgal^+/−) isolated from 10 day old α7^+/− pups were analyzed for the ability of β-galactosidase to report α7 integrin expression. α7βgal^+/− myoblasts were differentiated and subjected to X-gal staining and western analysis (FIGS. 1A and 1B).
The activity of the α7 integrin promoter was measured by β-galactosidase cleavage of the non-fluorescent compound fluorescein di-β-D-galactopyranoside (FDG) to fluorescein. This assay was used to screen compound libraries to identify molecules that up-regulate α7 integrin expression in muscle.
Also evaluated was the effect of various isoforms of laminin and the ligand for α7β1 integrin on integrin expression. Positive hits were subjected to dose-response analysis, western analysis and a myostatin counterscreen (a negative regulator of muscle growth).

[1] = given as log AC50 (negative values)
[2] = curve class number, key not given
[3] = curve fit, activity at zero concentration

Structure (SMILES)	EC50 [1] [µM]	Score (Table 12 compound data)	Fit Curve Class [2]	Fit HillSlope (curve fit)	Fit Zero Activity [%] [3] [%]	Fit Curve Class	Fit HillSlope	Fit Zero Activity [%]	Score	EC50 [µM]	Fit Infinite Activity [%] (curve fit, activity at infinite concentration)	Fit LogAC50 [1]
COc1ccc(O)c(/C=N/NC(=O)c2cc(O)nc3ccccc23)c1 [Compound 179]	5.62	42	2.1	2.2526	−35.6913							
CCOc1ccc(NC(=O)CN2C(=O)NC(CCSC)C2=O)cc1 (stereo not shown) [Compound 180]	10	42	2.2	3.1925	−1.6238							
Br.COc1ccc(C(=O)CN2CCCCC2)cc1 [Compound 181]						2.1	4.9549	12.5	42	12.6		
CNP(=O)(Oc1ccccc1)OC12CC3CC(CC(C3)C1)C2 (stereo not shown) [Compound 182]						2.1	2.2481	−0.8571	42	10		
O=C(CCc1ccccc1)c1nnc(-c2ccccc2)o1 [Compound 183]	10	42	2.1	4.4495	1.0471							
COc1ccc(CNC(=O)COC(=O)CCc2c[nH]c3ccccc23)cc1 [Compound 184]	10	42	2.1	2.9023	−0.6011							
COc1ccccc1OCC(=O)N/N=C1/C=C(C)CC1 [Compound 185]	10	42	2.1	4.9549	−23.4705							
CC(C(=O)Nc1ccc(C#N)cc1)N(C)CC(=O)Nc1cccc(F)c1 (stereo not shown) [Compound 186]	3.98	42	2.1	0.9	−45.5302							
COC(=O)C1SCC2C(=O)N(Cc3ccc(F)cc3)CC(=O)N21 (stereo not shown) [Compound 187]	8.91	42	2.1	1.3437	−54.3669							
COc1ccc(-c2cc(COc3ccccc3)on2)cc1 [Compound 188]	10	42	2.1	4.5045	0.195							
Sc1nnc(Cn2cnc3ccccc32)n1-c1ccccc1 [Compound 189]	8.91	42	2.2	0.8	8.5392							
CN(C#N)c1nccc(-c2cccs2)n1 [Compound 190]	11.2	42	2.1	2.0937	−28.9068							
O=Cc1cnc(N2CCCCC2)s1 [Compound 191]	11.2	42	2.1	4.9549	−19.3188							
Nc1nccc(-c2ccc(-n3cnc4ccccc43)cc2)n1 [Compound 192]	11.2	42	2.2	4.095	2.4789							
COc1cc2c(cc1OC)C(NC(=O)C(F)(F)F)C/C2=N\O (stereo not shown) [Compound 193]	11.2	42	2.1	4.095	2.547							
COc1ccc(N2CCN(CCC3Oc4cc([N+](=O)[O-])ccc4NC3=O)CC2)cc1 (stereo not shown) [Compound 194]		42	2.2	1.7137	−2.9581						73.9084	−5.05
N#Cc1ccc(OCC(O)CS(=O)(=O)c2ccccc2)cc1 (stereo not shown) [Compound 195]	10	42	2.1	4.045	−9.8792							
Cc1ccccc1C(=O)Nc1nnc(SC(C)C)s1 [Compound 196]	10	42	2.2	2.8473	−0.5091							
CC(=O)c1cccc(NC(=O)C(=O)Nc2cccc3ccccc23)c1 [Compound 197]	8.91	42	2.2	0.9	1.5							
Cc1cc(C)nc(NC(=O)c2ccc(Cl)cc2Cl)n1 [Compound 198]	10	42	2.2	4.9549	1.0914							

Structure (SMILES)	EC50 [1] [µM]	Score (Table 12 compound data)	Fit Curve Class [2]	Fit HillSlope (curve fit)	Fit Zero Activity [%] [3] [%]	Fit Curve Class	Fit HillSlope	Fit Zero Activity [%]	Score	EC50 [µM]	Fit Infinite Activity [%] (curve fit, activity at infinite concentration)	Fit LogAC50 [1]
CC(C)N(CCO)C(=O)CCc1nnc(CCCc2ccccc2)o1 [Compound 199]	12.6	42	2.2	1.2876	0.1862							
c1ccc(CN2CCCC3(CCCN(Cc4nc(CC5CC5)no4)C3)C2)cc1 (stereo not shown) [Compound 200]	8.91	42	2.1	1.4781	−42.0662							
Cn1c(=O)c2c(nc(Sc3ncnn3CC(=O)NC3CCCCC3)n2C)n(C)c1=O [Compound 201]	11.2	42	2.1	2.3531	−19.8816							
NS(=O)(=O)c1ccc(NC(=O)Nc2ccc(Cl)cc2)cc1 [Compound 202]						2.2	1.8617					
CC1=C(C#N)C(=O)N(C)C(=O)/C1=C\NNc1ccc(F)cc1 [Compound 203]	7.08	42	2.1	1.4781	−47.2995							
CCS(=O)(=O)N1CCN(c2ccc([N+](=O)[O-])c(NCC3CCCO3)c2)CC1 (stereo not shown) [Compound 204]	10	42	2.2	3.5722	0.4864							
O=C(NC(=S)NCCC1=CCCCC1)c1ccc(Br)o1 [Compound 205]	7.08	42	2.1	1.4781	−40.2978							
CCCC(=O)Nc1ccccc1NC(=O)c1ccc(OCC)cc1 [Compound 206]	11.2	42	2.1	4.095	13.9528							
NS(=O)(=O)c1ccc(NC(=O)c2ccc(CNS(=O)(=O)c3cc(C(F)(F)F)ccc3Cl)cc2)cc1 [Compound 207]	10	42	2.2	2.5334	0.1699							
COc1ccc(CN2CCNC(=O)C2CC(=O)NCCc2c[nH]c3ccccc23)c(OC)c1 (stereo not shown) [Compound 208]	10	42	2.2	3.1925	−9.1413							
O=Cc1cn(Cc2ccc(F)cc2Cl)c2ccccc12 [Compound 209]						2.1	4.095	12.1779	42	15.8		
Cc1ccc(-c2nc(C)sc2CC(=O)OCC(=O)Nc2c(F)cccc2F)cc1 [Compound 210]	12.6	42	2.1	4.9549	11.9156							
CNC(=O)/C(=C\c1cccc(Oc2ccccc2)c1)NC(=O)c1ccccc1 [Compound 211]	11.2	42	2.1	1.1341	−0.265							
O=S(=O)(NCC(c1ccco1)N1CCOCC1)c1ccc(Cl)cc1 (stereo not shown) [Compound 212]	14.1	42	2.1	4.5045	9.0119							
C=CCc1c(C)nc(-c2ccccc2)nc1N/N=C/c1ccccc1 [Compound 213]	11.2	42	2.1	1.2876	−1.0122							
CCc1ccc(Sc2cc(C(=O)NCCN3CCOCC3)c3ccccc3n2)cc1 [Compound 214]	11.2	42	2.1	2.0937	13.9034							
O=C(Nc1ccc(Oc2cccnc2)cc1)c1ccccc1Cl [Compound 215]	10	42	2.1	2.1211	13.9023							
O=C(CNC(=O)c1cccc(F)c1)N/N=C/c1cc(Br)ccc1OCc1ccccc1 [Compound 216]	10	42	2.2	0.8	3.67							
COc1ccc(CCNC(=O)c2cc(-c3cc(C)ccc3O)n[nH]2)cc1OC [Compound 217]	10	42	2.2	3.0654	9.7958							
